Test results from patent US20240327334A1, “Covalent Inhibitors As Antiviral Agents” (Enanta Pharmaceuticals, Inc., priority 2022, published 2024).
Like-named read-outs stand apart in the source and are kept apart here.

Legend:
SARS-CoV-2 replicon = test: microbe, parasite or virus in culture; assay type: cell-based; conditions: Severe acute respiratory syndrome coronavirus 2, Huh-7
SARS-CoV-2 USA-WA1/2020 = test: microbe, parasite or virus in culture; assay type: cell-based; conditions: read-out: SARS-CoV-2 BSL3 EC50
[1] = molecular target: SARS-CoV-2 Papain-like (PLpro) protease (Severe acute respiratory syndrome coronavirus 2, UniProt P0DTD1); test: SARS-CoV-2 Papain-like (PLpro) protease biochemical enzyme inhibition assay (ubiquitin-fluorophore substrate, Ub-R110); conditions: Ub-R110 substrate; run in duplicate; read-out: PLpro IC50
[2] = Severe acute respiratory syndrome coronavirus 2, 144 h, Vero 76 cells, SARS-CoV-2 USA-WA1/2020, neutral red, day 6

Structure (SMILES) | EC50 (SARS-CoV-2 replicon) [nM] | EC50 (SARS-CoV-2 USA-WA1/2020; [2]) [nM] | IC50 [1] [nM] | EC50 (SARS-CoV-2 USA-WA1/2020; Severe acute respiratory syndrome coronavirus 2, Vero 76, 144 h) [nM]
COC(=O)/C=C/CCNC(=O)C(=O)NCc1ccccc1C(=O)N[C@H](C)c1cccc2ccccc12 [Example 1] | < 1000 | < 1000 | < 100 | –
COC(=O)/C=C/CNC(=O)C(=O)NCc1ccccc1C(=O)N[C@H](C)c1cccc2ccccc12 [Example 2] | < 1000 | < 1000 | < 100 | –
COC(=O)/C=C/CCNC(=O)C(=O)NCc1ccccc1C(=O)NC1(c2cccc3ccccc23)CC1 [Example 3] | < 1000 | < 1000 | < 100 | –
N#CCNC(=O)C(=O)NCc1ccc(-c2ccn(C(F)F)n2)cc1C(=O)NC1(c2ccc(F)c3ccccc23)CC1 [Example 125] | 1000 to 10000 | < 1000 | < 100 | –
C#CCNC(=O)C(=O)NCc1ccc(-c2ccn(C(F)F)n2)cc1C(=O)NC1(c2ccc(F)c3ccccc23)CC1 [Example 126] | < 1000 | < 1000 | < 100 | –
N#CCNC(=O)C(=O)NCc1ccccc1C(=O)NC1(c2cc(Cl)cc(-c3cccs3)c2)CC1 [Example 457, N1-(2-((1-(3-chloro-5-(thiophen-2-yl)phenyl)cyclopropyl)carbamoyl)benzyl)-N2-(cyanomethyl)oxalamide] | 1000 to 10000 | – | < 100 | 1000 to 10000
O=C(C#CCNC(=O)C(=O)NCc1ccccc1C(=O)NC1(c2cccc3ccccc23)CC1)NC1CC1 [Example 518] | < 1000 | < 1000 | < 100 | –
O=C(C#CCNC(=O)C(=O)NCc1ccccc1C(=O)NC1(c2cccc3ccccc23)CC1)N[C@]12C[C@](C(F)(F)F)(C1)C2 [Example 525] | < 1000 | 1000 to 10000 | < 100 | –
O=C(NCC#CC(=O)N1CC2CC2C1)C(=O)NCc1ccccc1C(=O)NC1(c2ccc3ccccc3c2)CC1 (stereo not drawn) [Example 527] | < 1000 | < 1000 | < 100 | –
O=C(NCC#CC(=O)N1CC2CC2C1)C(=O)NCc1ccccc1C(=O)NC1(c2cccc3ccccc23)CC1 (stereo not drawn) [Example 528] | < 1000 | < 1000 | < 100 | –
O=C(NCC#CC(=O)N1CC(F)(F)C1)C(=O)NCc1ccccc1C(=O)NC1(c2cccc3ccccc23)CC1 [Example 529] | < 1000 | < 1000 | < 100 | –
O=C(NCC#CC(=O)N1CC(F)(F)C1)C(=O)NCc1ccccc1C(=O)NC1(c2ccc3ccccc3c2)CC1 [Example 535] | < 1000 | 1000 to 10000 | < 100 | –
O=C(C#CCNC(=O)C(=O)NCc1ccccc1C(=O)NC1(c2ccc3ccccc3c2)CC1)NC1CC1 [Example 536] | < 1000 | < 1000 | < 100 | –
O=C(C#CCNC(=O)C(=O)NCc1ccccc1C(=O)NC1(c2ccc3ccccc3c2)CC1)N[C@]12C[C@](C(F)(F)F)(C1)C2 [Example 537] | < 1000 | < 1000 | < 100 | –
